Structures can show the parent of a compound that is named as a salt. Where two headings read alike, the source gives them in different places. Each block holds one compound with its values, some of them ahead of it.
Key:
[1] = Stability and water uptake from air at normal humidity; type: physicochemical; settings: normal circumstances
Source text: During our experimental work we prepared different ziprasidone hydrobromide compounds and forms. […] In suitable circumstances both the anhydrate and the monohydrate of ziprasidone hydrobromide can be prepared in stable forms, at normal humidity these products can easily be handled, meanwhile their water and active ingredient contents remain constant. The hemihydrate of ziprasidone hydrobromide can also be prepared reproducibly.
1.69 g crystalline 5-{2-[4-(1,2-benzisothiazol-3-yl)-1-piperazinyl]-ethyl}-6-chloro-1,3-dihydro-2H-indol-2-one-hydrobromide anhydrate (ziprasidone-hydrobromide anhydrate) in a form of Ziprasidone-hydrobromide Form II was obtained.

[2] = 31% relative humidity, after 4 hours; starting water content 0.19%; cited from earlier work
[3] = Exposure of samples to 100% relative humidity at room temperature; type: physicochemical
Source text: The Ziprasidone-hydrobromide Form III (hemihydrate) sample was also stable in these circumstances.

[4] = Thermogravimetric (TG) and differential scanning calorimetric (DSC) investigation during heating; type: physicochemical
Source text: The Ziprasidone-hydrobromide Form III (hemihydrate) sample was also stable in these circumstances. Thermogravimetry (TG) Parameters: [table] Differential Scanning Calorimetry (DSC) Parameters: [table]

water absorption from air [1]: adsorbed water rapidly from air
SMILES: Cl.O=C1Cc2cc(CCN3CCN(c4nsc5ccccc45)CC3)c(Cl)cc2N1 [ziprasidone hydrochloride anhydrate, reference compound]
water content after exposure to humid air [2]: 2.55%

water absorption from air [1]: does not absorb water from the air | stability / change of water content in 100% relative humidity area [3]: does not change significantly
SMILES: O=C1Cc2cc(CCN3CCN(c4nsc5ccccc45)CC3)c(Cl)cc2N1 [Ziprasidone-hydrobromide Form II, 5-{2-[4-(1,2-benzisothiazol-3-yl)-1-piperazinyl]-ethyl}-6-chloro-1,3-dihydro-2H-indol-2-one-hydrobromide anhydrate]

stability / change of water content in 100% relative humidity area ([3]; hemihydrate): stable
SMILES: O=C1Cc2cc(CCN3CCN(c4nsc5ccccc45)CC3)c(Cl)cc2N1 [Ziprasidone-hydrobromide Form III, 5-{2-[4-(1,2-benzisothiazol-3-yl)-1-piperazinyl]-ethyl}-6-chloro-1,3-dihydro-2H-indol-2-one-hydrobromide hemihydrate]

stability / change of water content in 100% relative humidity area ([3]; monohydrate): does not change significantly | temperature at which water is lost during heating ([4]; TG and DSC, during heating): 40-60 °C | re-uptake of water after the heat-effect ([4]; after heating, transforms back to monohydrate of the original crystal structure): readily takes back the water
SMILES: O=C1Cc2cc(CCN3CCN(c4nsc5ccccc45)CC3)c(Cl)cc2N1 [Ziprasidone-hydrobromide Form I, 5-{2-[4-(1,2-benzisothiazol-3-yl)-1-piperazinyl]-ethyl}-6-chloro-1,3-dihydro-2H-indol-2-one-hydrobromide monohydrate]
